Columns and labels:
[1] = tested on: CK2 in CCRF-CEM cells (Ser529 in NF-κB p65); experiment: PhosFlow analysis of NF-κB p65 Ser529 phosphorylation, CCRF-CEM; assay type: cell-based, human; conditions: 16 µM, 24 h
Experimental: CCRF-CEM cells were prepared following the BD PhosFlow™ Protocol for Human PBMCs using NF-κB p65 (pS529)-PE (#558423), BD PhosFlow™ Perm Buffer III (#558050), Cytofix Fixation Buffer (#554655), and Stain Buffer FBS (#554656), all obtained from Becton Dickinson. Flow cytometric analysis was performed using a BD Accuri C6 Plus cytometer (Becton Dickinson) according to the manufacturer’s instructions.

[2] = tested on: MCF-7 cells; experiment: mitochondrial membrane potential (ΔΨm) JC-1 assay, MCF-7; assay type: cell-based, human; conditions: 48 h
Experimental: The mitochondrial membrane potential was evaluated by flow cytometry using 5,5′,6,6′-tetrachloro-1,1′,3,3′-tetraethylbenzimidazolocarbocyanine iodide (JC-1; Sigma-Aldrich), as previously described.

[3] = tested on: MDA-MB-231 (breast carcinoma); experiment: MTT-based viability assay, MDA-MB-231; assay type: cell-based, human
Experimental: (§1) 3. The cytotoxicity of the newly obtained inhibitors, i.e., 1, 2, and 4 was tested towards four cell lines, i.e., CCRF-CEM (acute lymphoblastic leukemia ALL), MCF-7 (breast carcinoma), MDA-MB-231 (triple negative breast carcinoma), and Vero (Cercopithecus aethiops kidney).
(§2) The CCRF-CEM (acute lymphoblastic leukemia, ALL) and MDA-MB-231 (triple-negative breast adenocarcinoma) cell lines were obtained from the European Collection of Authenticated Cell Cultures (ECACC), while the MCF-7 (hormone-dependent breast adenocarcinoma) and Vero (Cercopithecus aethiops kidney) cell lines were purchased from the American Type Culture Collection (ATCC, Manassas, VA, USA). CCRF-CEM cells were maintained in RPMI-1640 medium, whereas MCF-7 and MDA-MB-231 cells were cultured in DMEM (Sigma-Aldrich Chemical Company, St. Louis, MO, USA). Vero cells were cultured in minimum essential medium eagle (MEM; Sigma-Aldrich). All media were supplemented with 10% fetal bovine serum (FBS), 2 mM L-glutamine, and antibiotics (100 U/mL penicillin and 100 µg/mL streptomycin) (Sigma-Aldrich). Cells were grown in 75-cm^2 culture flasks (Googlab Scientific, Rakocin, Poland) in a humidified atmosphere containing 5% CO2 at 37 °C. All experiments were performed using exponentially growing cultures. Stock solutions of the test compounds were prepared in DMSO and stored at –80 °C for up to one month.
(§3) Following incubation with the tested compounds, the MTT assay was carried out as previously described. Optical density was measured at 570 nm using a BioTek microplate reader (Winooski, VT, USA). All measurements were performed in at least three independent biological replicates.

[4] = tested on: CCRF-CEM cells; experiment: annexin V/propidium iodide apoptosis, flow cytometry, CCRF-CEM; assay type: cell-based, human; conditions: 48 h, annexin V binding
Experimental: The results obtained for CCRF-CEM and MCF-7 are shown in Figure 3 and Figure 4, respectively. […] 1, 79.6% of cells were apoptotic.
CCRF-CEM cells were seeded in 24-well plates at a density of 2 × 10^5 cells/mL. The cells were treated with the tested compounds at concentrations of 8, 16, and 32 µM, followed by incubation for 48 h. After treatment, the cells were harvested and processed according to the previously described protocol. Flow cytometric measurements were conducted within 1 h of cell labeling. Viable, necrotic, early apoptotic, and late apoptotic cells were identified using a BD Accuri C6 Plus flow cytometer and analyzed with BD Accuri C6 Plus software, version 1.0.34.1 (BD Biosciences, San Jose, CA, USA).

[5] = tested on: Vero (Cercopithecus aethiops kidney); experiment: MTT-based viability assay, Vero; assay type: cell-based; conditions: Chlorocebus sabaeus, MTT, 48 h, non-cancerous cells, read-out: IC50 [µM] Vero
Experimental: as §1, §2, §3

[6] = tested on: PIM-1 kinase in CCRF-CEM cells (Ser112 in BAD); experiment: Western blot of phosphorylated BAD (Ser112), marker of PIM kinase activity, CCRF-CEM; assay type: cell-based, human; conditions: 16 µM, 24 h, untreated cells = 1
Experimental: After 24 h of treatment, we assessed site-specific phosphorylation of Ser529 in NF-κB p65 and Ser112 in BAD—a marker of PIM kinase activity—using Western blot analysis (Figure 8). The data for BAD confirmed intracellular inhibition of this kinase by the tested compounds in both cell lines in a dose-dependent manner. A statistically significant decrease in phosphorylated BAD was observed following treatment with 16 µM of compound 1, with relative protein levels reduced to 0.48 and 0.46 in CCRF-CEM and MCF-7 cells, respectively (Figure 8a–c).
Exponentially growing CCRF-CEM or MCF-7 cells were seeded at a density of 6 × 10^5 cells per 6 cm dish. Compounds were then added, with a final DMSO concentration of 0.5%. Cell lysates were prepared as previously described. The ECL substrate was used for signal detection, and the immunoblots were scanned using a G:BOX Chemi imaging system (Syngene, Cambridge, UK) equipped with GeneSys software, Version 1.4.3.0 (Syngene, Cambridge, UK).
For densitometric analysis, immunoblots were scanned using the G:BOX Chemi system (Syngene), and the band intensities of phosphorylated and total proteins were quantified with GeneSys software (Syngene, Cambridge, UK). The levels of phosphorylated proteins were normalized to GAPDH, with the value for untreated cells set to 1, and subsequently expressed as a percentage relative to the appropriate control.

[7] = target: T1, PIM-1 kinase (Homo sapiens, UniProt P11309); experiment: radiometric P81 filter isotopic kinase assay, PIM-1; assay type: biochemical
T1 construct: made in house
Experimental: Synthetic peptide […] served as the substrate for CK2, while peptide […] was used as the substrate for PIM-1.
The synthesized compounds were evaluated for their inhibitory activity against human CK2α, the human CK2 holoenzyme, and PIM-1 using the P81 filter-based isotopic assay, as previously described. […] The experimental data were fitted to a dose–response curve using non-linear regression analysis (variable slope) Y = Bottom + (Top − Bottom)/(1 + 10^((LogIC50 − X) × HillSlope) equation in GraphPad Prism (Prism 9, version 9.0.1).

[8] = tested on: MCF-7 (breast carcinoma); experiment: MTT-based viability assay, MCF-7; assay type: cell-based, human
Experimental: as §1, §2, §3

[9] = tested on: CCRF-CEM (acute lymphoblastic leukemia); experiment: MTT-based viability assay, CCRF-CEM; assay type: cell-based, human
Experimental: as §1, §2, §3

[10] = IC50 for Vero/IC50 for cancer cells

T1 sequence (P11309 whole entry): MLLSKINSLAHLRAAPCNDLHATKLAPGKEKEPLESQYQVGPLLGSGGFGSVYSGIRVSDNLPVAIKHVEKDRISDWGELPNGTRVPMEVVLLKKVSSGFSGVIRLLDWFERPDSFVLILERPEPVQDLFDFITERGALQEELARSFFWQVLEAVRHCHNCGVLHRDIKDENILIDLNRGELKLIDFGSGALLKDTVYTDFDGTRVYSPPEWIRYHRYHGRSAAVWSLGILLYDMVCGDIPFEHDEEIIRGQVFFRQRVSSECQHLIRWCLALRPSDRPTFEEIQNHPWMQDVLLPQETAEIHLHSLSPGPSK

CC(=O)Cn1cnc2c(Br)c(Br)c(Br)c(Br)c21 [compound 1, 1-(4,5,6,7-tetrabromo-1H-benzimidazol-1-yl)propan-2-one]
p65-P-negative CCRF-CEM cells [1]: 29%
MCF-7 cells with reduced ΔΨm ([2]; 16 µM): 26%
MCF-7 cells with reduced ΔΨm ([2]; 32 µM): 19%
IC50 ([3]; Homo sapiens, MDA-MB-231, MTT, 48 h, read-out: IC50 [µM] MDA-MB-231): 21.2 ± 0.76 µM
SI (selectivity index) MDA-MB-231 [3, 10]: 0.95
apoptotic CCRF-CEM cells ([4]; 8 µM): 23.5%
apoptotic CCRF-CEM cells ([4]; 16 µM): 79.6%
apoptotic CCRF-CEM cells ([4]; 32 µM): ~98%
IC50 [5]: 20.2 ± 3.59 µM
relative level of phosphorylated BAD (Ser112), CCRF-CEM [6]: 0.48
IC50 [7]: 0.52 ± 0.02 µM
remaining activity at 2 µM ([7]; cpd. concentration 2 μM, read-out: PIM-1 Residual Activity [%]): 22.4 ± 0.9%
remaining activity at 5 µM ([7]; cpd. concentration 5 μM, read-out: PIM-1 Residual Activity [%]): 10.3 ± 0.7%
remaining activity at 20 µM ([7]; cpd. concentration 20 μM, read-out: PIM-1 Residual Activity [%]): 2.9 ± 0.2%
IC50 ([8]; Homo sapiens, MCF7, MTT, 48 h, read-out: IC50 [µM] MCF-7): 17.1 ± 2.07 µM
SI (selectivity index) MCF-7 [8, 10]: 1.18
IC50 ([9]; Homo sapiens, CCRF-CEM, MTT, 48 h, read-out: IC50 [µM] CCRF-CEM): 12.4 ± 0.82 µM
SI (selectivity index) CCRF-CEM [9, 10]: 1.62

From PMC12193579, “Pro-Apoptotic Activity of 1-(4,5,6,7-Tetrabromo-1H-benzimidazol-1-yl)propan-2-one, an Intracellular Inhibitor of PIM-1 Kinase in Acute Lymphoblastic Leukemia and Breast Cancer Cells” (International Journal of Molecular Sciences, 2025)
